In brackets after ≈: the same amount, converted by molar mass.
Columns and labels:
[1] = tested on: Mycobacterium tuberculosis; assay: Anti-mycobacterial activity against Mycobacterium tuberculosis H37Rv ATCC 27294 assessed as inhibition of microbial growth incubated for 5 days by MABA method; format: functional; conditions: H37Rv ATCC 27294, 120 h
[2] = Selectivity index, ratio of IC50 for PBMC (unknown origin) to MIC for Mycobacterium tuberculosis H37Rv ATCC 27294
[3] = Selectivity index, ratio of IC50 for mouse RAW264.7 cells to MIC for Mycobacterium tuberculosis H37Rv ATCC 27294; format: toxicity; conditions: read-out: Selectivity Index
[4] = tested on: RAW264.7; assay: Cytotoxicity against mouse RAW264.7 cells assessed as reduction in cell viability after 72 hrs by MTT assay; format: cell-based; conditions: RAW264.7, 72 h
[5] = tested on: PBMC; assay: Cytotoxicity against PBMC (unknown origin) assessed as reduction in cell viability after 72 hrs by MTT assay; format: cell-based; conditions: Homo sapiens

SMILES: Cc1cnc(Cl)c(Cn2cc(C=O)nn2)c1
- MIC [1]: 13.3 µM

SMILES: O=Cc1cn(Cc2cc(-c3ccccc3)cnc2Cl)nn1
- MIC [1]: 5.2 µM

SMILES: Cc1ccc(-c2cnc(Cl)c(Cn3cc(C=O)nn3)c2)cc1
- MIC [1]: 40.1 µM

SMILES: O=Cc1cn(Cc2cc(-c3ccc(F)cc3)cnc2Cl)nn1
- MIC [1]: 19.8 µM

SMILES: Cc1cnc(N2CCOCC2)c(Cn2cc(C=O)nn2)c1
- MIC [1]: 21.8 µM

SMILES: Cc1cnc(N2CCSCC2)c(Cn2cc(C=O)nn2)c1
- MIC [1]: 10.3 µM

SMILES: O=Cc1cn(Cc2cc(-c3ccccc3)cnc2N2CCOCC2)nn1
- MIC [1]: 4.5 µM

SMILES: O=Cc1cn(Cc2cc(-c3ccccc3)cnc2N2CCSCC2)nn1
- MIC [1]: 8.6 µM

SMILES: Cc1ccc(-c2cnc(N3CCOCC3)c(Cn3cc(C=O)nn3)c2)cc1
- MIC [1]: 4.3 µM

SMILES: Cc1ccc(-c2cnc(N3CCSCC3)c(Cn3cc(C=O)nn3)c2)cc1
- MIC [1]: 33.1 µM

SMILES: Cc1cnc(Cl)c(Cn2cc(/C=N/NC(=O)c3ccc(F)cc3)nn2)c1
- MIC [1]: 33.6 µM

SMILES: O=C(N/N=C/c1cn(Cc2cc(-c3ccccc3)cnc2Cl)nn1)c1ccc(F)cc1
- MIC [1]: 3.6 µM
- Selectivity Index [2]: 228
- selectivity ratio [3]: 97
- IC50 [4]: 152 µg/mL (≈ 350 µM)
- IC50 [5]: 357 µg/mL (≈ 821 µM)

SMILES: Cc1ccc(-c2cnc(Cl)c(Cn3cc(/C=N/NC(=O)c4ccc(F)cc4)nn3)c2)cc1
- MIC [1]: 27.9 µM

SMILES: O=C(N/N=C/c1cn(Cc2cc(-c3ccc(F)cc3)cnc2Cl)nn1)c1ccc(F)cc1
- MIC [1]: 13.8 µM

SMILES: Cc1cnc(Cl)c(Cn2cc(/C=N/NC(=O)c3ccc(C(F)(F)F)cc3)nn2)c1
- MIC [1]: 3.7 µM
- Selectivity Index [2]: 216
- selectivity ratio [3]: 165
- IC50 [4]: 258 µg/mL (≈ 610 µM)
- IC50 [5]: 337 µg/mL (≈ 797 µM)

SMILES: O=C(N/N=C/c1cn(Cc2cc(-c3ccccc3)cnc2Cl)nn1)c1ccc(C(F)(F)F)cc1
- MIC [1]: 3.2 µM
- Selectivity Index [2]: 180
- selectivity ratio [3]: 200
- IC50 [4]: 313 µg/mL (≈ 646 µM)
- IC50 [5]: 282 µg/mL (≈ 582 µM)

SMILES: Cc1ccc(-c2cnc(Cl)c(Cn3cc(/C=N/NC(=O)c4ccc(C(F)(F)F)cc4)nn3)c2)cc1
- MIC [1]: 50.2 µM

SMILES: O=C(N/N=C/c1cn(Cc2cc(-c3ccc(F)cc3)cnc2Cl)nn1)c1ccc(C(F)(F)F)cc1
- MIC [1]: 12.5 µM

SMILES: Cc1cnc(N2CCOCC2)c(Cn2cc(/C=N/NC(=O)c3ccc(F)cc3)nn2)c1
- MIC [1]: 59.1 µM

SMILES: Cc1cnc(N2CCSCC2)c(Cn2cc(/C=N/NC(=O)c3ccc(F)cc3)nn2)c1
- MIC [1]: 28.5 µM

SMILES: O=C(N/N=C/c1cn(Cc2cc(-c3ccccc3)cnc2N2CCOCC2)nn1)c1ccc(F)cc1
- MIC [1]: 12.9 µM

SMILES: O=C(N/N=C/c1cn(Cc2cc(-c3ccccc3)cnc2N2CCSCC2)nn1)c1ccc(F)cc1
- MIC [1]: 6.2 µM
- Selectivity Index [2]: >128
- selectivity ratio [3]: 60
- IC50 [4]: 188 µg/mL (≈ 375 µM)
- IC50 [5]: > 400 µg/mL

SMILES: Cc1ccc(-c2cnc(N3CCOCC3)c(Cn3cc(/C=N/NC(=O)c4ccc(F)cc4)nn3)c2)cc1
- MIC [1]: 100 µM

SMILES: Cc1ccc(-c2cnc(N3CCSCC3)c(Cn3cc(/C=N/NC(=O)c4ccc(F)cc4)nn3)c2)cc1
- MIC [1]: 97.1 µM

SMILES: Cc1cnc(N2CCOCC2)c(Cn2cc(/C=N/NC(=O)c3ccc(C(F)(F)F)cc3)nn2)c1
- MIC [1]: 26.4 µM

SMILES: Cc1cnc(N2CCSCC2)c(Cn2cc(/C=N/NC(=O)c3ccc(C(F)(F)F)cc3)nn2)c1
- MIC [1]: 3.2 µM
- Selectivity Index [2]: 224
- selectivity ratio [3]: 136
- IC50 [4]: 212 µg/mL (≈ 433 µM)
- IC50 [5]: 350 µg/mL (≈ 715 µM)

SMILES: O=C(N/N=C/c1cn(Cc2cc(-c3ccccc3)cnc2N2CCOCC2)nn1)c1ccc(C(F)(F)F)cc1
- MIC [1]: 23.3 µM

SMILES: O=C(N/N=C/c1cn(Cc2cc(-c3ccccc3)cnc2N2CCSCC2)nn1)c1ccc(C(F)(F)F)cc1
- MIC [1]: 2.8 µM
- Selectivity Index [2]: 120
- selectivity ratio [3]: 189
- IC50 [4]: 296 µg/mL (≈ 537 µM)
- IC50 [5]: 188 µg/mL (≈ 341 µM)

SMILES: Cc1ccc(-c2cnc(N3CCOCC3)c(Cn3cc(/C=N/NC(=O)c4ccc(C(F)(F)F)cc4)nn3)c2)cc1
- MIC [1]: 91.1 µM

SMILES: Cc1ccc(-c2cnc(N3CCSCC3)c(Cn3cc(/C=N/NC(=O)c4ccc(C(F)(F)F)cc4)nn3)c2)cc1
- MIC [1]: 5.4 µM
- Selectivity Index [2]: >128
- selectivity ratio [3]: 104
- IC50 [4]: 326 µg/mL (≈ 576 µM)
- IC50 [5]: > 400 µg/mL

SMILES: O=C(O)c1cn(C2CC2)c2cc(N3CCNCC3)c(F)cc2c1=O [CIPROFLOXACIN]
- MIC [1]: 12.6 µM

SMILES: CC[C@@H](CO)NCCN[C@@H](CC)CO [ETHAMBUTOL]
- MIC [1]: 15.3 µM

SMILES: NNC(=O)c1ccncc1 [ISONIAZID]
- MIC [1]: 2.6 µM
- IC50 [4]: > 400 µg/mL
- IC50 [5]: 169 µg/mL (≈ 1230 µM)

— ChEMBL document CHEMBL3421527, “Synthesis and anti-mycobacterial activity of 2-chloronicotinaldehydes based novel 1H-1,2,3-triazolylbenzohydrazides” (Bioorg Med Chem Lett, 2015)
